Experimental data as given in US20100130604A1, “USE OF ROSMARINIC ACID IN MANUFACTURE OF MEDICAMENTS FOR TREATING OR PREVENTING HEPATIC AND RENAL DISEASES” (SHANGDONG LUYE NATURAL DRUG RESEARCH AND DEVELOPMENT CO., …, priority 2006, published 2010).

Legend:
Type in all cases: in vivo, Sprague Dawley rats
[1] = tested on: rats with diabetic nephropathy; test: Diabetic nephropathy in rats (left nephrectomy + streptozocin); conditions: p.o. 10 mg/kg; for creatinine: serum
Procedure: After 1 week-long acclimation period, animals were anaesthetised with 10% chloral hydrate (0.35 mL/100 g, i.p.) and nephrectomy was exercised to the left kidney. One week later, a single dose of 1% of streptozocin solution was i.v. injected to all animals at 60 mg/kg. After 72h, blood was collected from eyepit to test blood glucose level with the above-mentioned kit. The model was considered successful when blood glucose level >16.7 mmol/L. When the model is established, 130 rats were randomly divided into 13 groups, with 10 animals in each group, namely, a normal control group, a model group, benzanapril p.o. Group at 10 mg/kg, RA i.v. groups at 2.5 mg/kg, 5 mg/kg, 25 mg/kg, 75 mg/kg, and 150 mg/kg of RA, and RA p.o. groups at 5 mg/kg, 10 mg/kg, 50 mg/kg, 150 mg/kg, and 300 mg/kg of RA. The drugs were administered once every day. Blood was collected from eyepit at week 8 and week 16 to determine serum levels of creatinine and urea nitrogen. Urinary protein excretion within 24 hours was also studied. The animals were sacrificed 24 hours after the last dose and kidney removed for histopathological examination.

[2] = tested on: renal interstitial fibrosis in rats; test: Renal interstitial fibrosis in rats with unilateral urethral obstruction; conditions: day 10
Procedure: 130 rats were randomly divided into 13 groups, namely, a sham operation group, a model group, benazapril p.o. Group at 10 mg/kg, RA i.v. groups at 2.5 mg/kg, 5 mg/kg, 25 mg/kg, 75 mg/kg, and 150 mg/kg of RA, and RA p.o. groups at 2.5 mg/kg, 5 mg/kg, 25 mg/kg, 150 mg/kg, and 300 mg/kg of RA. The animals were acclimated for a week before they were all anaesthetised with an i.p. dose of 10% chloral hydrate at 3.0mL/kg and placed on the operating table in right lateral position. The rats were shaved and the operating area was disinfected using iodine tincture and 75% ethanol. The left urethra was exposed and isolated after a left lateral incision was made on the abdominal area and skin, muscles and all other layers of the abdominal wall were incised sequentially. In the sham group, the left urethra was only isolated without being ligated or cut off. In all other animals, the left urethra was ligated with No. 4 suture and obstructed followed by closure of the abdominal wall layer by layer. The animals were anaesthetised again with 10% chloral hydrate 10 days later, blood was collected and serum was separated to determine FN levels. The left kidney was removed after thorough rinsing and then fixed in 4% paraformaldehyde buffer. HYP level was determined according to instructions provided with the kit.

CRF rats [3] = test: CRF induced by 5/6 nephrectomy in rats; conditions: 8 weeks; p.o. 12 mg/kg
Procedure: 130 rats were randomly divided into 13 groups, with 10 animals in each group, namely, a normal control group, a model group, methylprednisolone p.o. Group at 12 mg/kg, RA i.v. groups at 2.5 mg/kg, 5 mg/kg, 25 mg/kg, 75 mg/kg, and 150 mg/kg of RA, and RA p.o. groups at 5 mg/kg, 10 mg/kg, 50 mg/kg, 150 mg/kg, and 300 mg/kg of RA. Apart from the normal control group, all other rats were induced to CRF by cutting off 5/6 of the kidneys. 2/3 of the left kidney was removed in the first operation, and one week later the right kidney in the second operation. Dosing started one week after the second operation via p.o. or i.p. routes. Blood was collected from eyepit at week 4 and week 8 to determine creatinine and urea nitrogen levels in sera. 5 animals in each group were sacrificed at week 4 and […] were sacrificed at the end of the study. Pathological changes in renal function were observed through HE and PAS staining of histopathological sections.

CRF rats [4] = test: CRF induced by 5/6 nephrectomy in rats; conditions: p.o. 12 mg/kg
hepatofibrosis in rats = test: CCl4-induced hepatofibrosis in chronic hepatitis in rats; conditions: hepatic; 8 mg/kg, 6 weeks
Procedure: 120 rats were randomly divided into 12 groups, with 10 in each group, namely, a normal control group, a model group, […] Apart from the normal control group, all rats were s.c. injected 0.3 ml of 40% solution of CC14 in oil per 100 g of body weight once every 3 days for 6 weeks. Animals in the normal control group were s.c. injected 0.3 ml/100 g body weight of oil vehicle following the same schedule as the experimental groups. First dose was doubled for all animals. Six weeks later, drugs were continuously administered to animals in each group for 6 weeks. After the administration was completed, all animals were anaesthetised with i.p. injection of 20% ethyl carbamate solution (Beijing Tongxian District Yucai Fine Chemicals). Blood was collected from abdominal aorta. Hepatic lobule tissue was removed, part of which was fixed with 10% neutral foinialin solution and made into wax blocks within 24-48 hours. […] Serum HA, LN, Pc III levels and hepatic HYP level were determined according to the respective kit instructions.

Structure (SMILES): CCOC(=O)[C@H](CCc1ccccc1)N[C@H]1CCc2ccccc2N(CC(=O)O)C1=O [Benazapril, reference compound]
- 24 h urinary protein excretion ([1]; 8 weeks): 19.29 ± 2.11 mg/24 h
- Blood glucose ([1]; 8 weeks): 21.11 ± 4.55 mmol/L
- Serum urea nitrogen ([1]; 8 weeks): 9.21 ± 1.62 mg/dL
- 24 h urinary protein excretion ([1]; 16 weeks): 61.76 ± 6.75 mg/24 h
- Blood glucose ([1]; 16 weeks): 22.11 ± 4.55 mmol/L
- Serum urea nitrogen ([1]; 16 weeks): 18.21 ± 3.25 mg/dL
- creatinine ([1]; 8 weeks): 0.57 ± 0.07 mg/dL
- creatinine ([1]; 16 weeks): 1.15 ± 0.13 mg/dL
- HYP ([2]; left kidney, benazapril p.o. 10 mg/kg): 500 ± 132 µg/g
- FN ([2]; serum, p.o. 10 mg/kg): 17.0 ± 3.6 mg/L

Structure (SMILES): C[C@H]1C[C@@H]2[C@H]([C@@H](O)C[C@@]3(C)[C@H]2CC[C@]3(O)C(=O)CO)[C@@]2(C)C=CC(=O)C=C12 [Methylprednisolone, reference compound]
- Serum urea nitrogen (CRF rats [3]): 18.21 ± 4.25 mg/dL
- Serum creatinine (CRF rats [4]; 4 weeks): 1.33 ± 0.13 mg/dL
- Serum urea nitrogen (CRF rats [4]; 4 weeks): 15.21 ± 3.25 mg/dL
- Serum creatinine (CRF rats [4]; 8 weeks): 1.25 ± 0.17 mg/dL

Structure (SMILES): CN(CCOc1ccc(CC2SC(=O)NC2=O)cc1)c1ccccn1 (stereo not drawn) [Rosiglitazone, reference compound]
- HYP (hepatofibrosis in rats): 1259 ± 153 µg/L
